Assay results: US5416231A, “Prostaglandin I2 derivatives” (Asahi Glass Company, Ltd., priority 1990, dated 1995)
In brackets after ≈: the same amount, converted by molar mass. Counter-ions that a name gives are not always drawn.

Legend:
[1] = test system: vasopressin-induced ST depression; test: Anti-anginal activities (Preventive activities on vasopressin-induced ST depression); type: in vivo, male rat (Donryou strain); settings: for minimal effective dose: Rattus norvegicus, read-out: Oral administration MED (minimum effective dose showing a significant preventive activity); for minimal effective dose / Oral administration MED (minimum effective dose showing a significant preventive activity): oral, 30 minutes prior to vasopressin (0.2 IU/kg)
Experimental: Vasopressin (0.2 IU/kg) was administered from the femoral vein of a male rat (Donryou strain) anesthetized with pentobarbital, and the electrocardiogram was recorded for 5 seconds each at intervals of 30 seconds over a period of 5 minutes after the administration. The depression of ST-segment (the average of five pulses) was calculated on the electrocardiogram. The test compound was dissolved in ethanol and intravenously administered 2 minutes prior to the administration of vasopressin, or after being dissolved in ethanol, suspended in a 0.5% tragacanth solution or in a 1% β-cyclodextrin solution and orally administered 30 minutes prior to the administration of vasopressin. The differences of the ST depression between the test compound-administered group and the non-treated control group (5 animals for each group) were analysed by two-way layout analysis of variance.

[2] = test system: platelet aggregation; test: Inhibitory activities on platelet aggregation, in vitro (ADP-induced); type: cell-based, guinea pig (Hartley strain); settings: platelet rich plasma, 10 minutes incubation, adenosine diphosphate 1 micro M; for IC50: Cavia porcellus, Platelet, 10 min
Experimental: (§1) From a guinea pig (Hartley strain), citric acid-added blood was obtained by a cardiac puncture. The blood was centrifuged at 120×g for 10 minutes, and the supernatant platelet rich plasma was separated. Measurement of platelet aggregation was conducted by means of an aggregometer in accordance with the Bone's nephelometry (G. V. R. Bone; Nature, vol 194, p 927, 1962). In a test in vitro, a test compound was added to the platelet rich plasma, and the mixture was incubated for 10 minutes. Then, adensoine diphosphate (1 micro M) was added to induce platelet aggregation. The degree of aggregation was represented by the maximum change in the light transmittance (the maximum aggregation rate) within 5 minutes after the addition of adenosine diphosphate, and the results are shown by a 50% inhibitory concentration. In a test ex vivo, a test compound was dissolved in ethanol, then suspended in a 0.5% tragacanth solution or in a 1% β-cyclodextrin solution and orally administered. From blood obtained by a cardiac puncture 30 minutes after the administration, a platelet rich plasma was prepared, and platelet aggregation was measured in the same manner as in the case of the test in vitro.

[3] = test system: male mice of ddY strain; test: Acute toxicity, oral; type: in vivo; settings: 20 mg/kg, 1% β-cyclodextrin solution, 7 days
Experimental: To male mice of ddY strain weighing 25-32 g (five animals per each group), a predetermined dose of a test compound dissolved in a small amount of ethanol and then diluted with a 1% β-cyclodextrin solution, was orally administered, and the mortality was recorded over a period of 7 days after the administration.

[4] = test system: platelet aggregation; test: Inhibitory activities on platelet aggregation, ex vivo after oral administration (ADP-induced); type: in vivo, guinea pig (Hartley strain); settings: 30 minutes after administration; for minimal effective dose: Cavia porcellus, Platelet, 0.5 h, read-out: ex vivo MED (minimum effective dose showing significant inhibitory effects, P < 0.05)
Experimental: as §1

[5] = Solvent Y: 1% β-cyclodextrin solution
[6] = Solvent X: 0.5% tragacanth solution

Compound | in vitro IC50 [2] [ng/mL] | IC50 [2] [ng/mL] | minimal effective dose [4, 5] [mg/kg] | further results
CCCCC(C)C[C@H](O)/C=C/[C@@H]1[C@@H]2[C@H](C[C@H]1O)O/C(=C\C1CC(C(=O)OC)C1)[C@@H]2F (stereo partly drawn) [Compound D-b, methyl ester of 2,4-methylene-7α-fluoro-17,20-dimethylPGI2] | 1.50 |  |  | minimal effective dose [1, 5]: 0.1 mg/kg; Number of dead animals/Number of test animals [3]: 0/5; ex vivo MED (minimum effective dose showing significant inhibitory effects, P < 0.05) [4, 5]: 0.3 mg/kg
methyl ester of (1S*,3R*)-2,4-ethylene-7α-flouro-17,20-dimethylPGI2 [Compound C] | 5.50 |  |  | 
CCCCC(C)C[C@H](O)/C=C/[C@@H]1[C@@H]2[C@H](C[C@H]1O)O/C(=C\CC1CC1C(=O)O)[C@@H]2F (stereo partly drawn) [Compound A, sodium salt of 2,3-methylene-7α-fluoro-17,20-dimethylPGI2] |  | 18.3 |  | 
CCCCC(C)C[C@H](O)/C=C/[C@@H]1[C@@H]2[C@H](C[C@H]1O)O/C(=C\C1CC(C(=O)O)C1)[C@@H]2F (single isomer, unassigned) [Compound E-b, sodium salt of 2,4-methylene-7α-fluoro-17,20-dimethylPGI2] | 1.70 |  | 0.3 | minimal effective dose [1, 5]: 0.1 mg/kg; Number of dead animals/Number of test animals [3]: 0/5
methyl ester of (1S*,3S*)-2,4-ethylene-7α-fluoro-17,20-dimethylPGI2 [Compound B-b] | 0.87 |  |  | Intravenous administration MED (minimum effective dose showing a significant preventive activity) ([1]; intravenous, in ethanol, 2 minutes prior to vasopressin (0.2 IU/kg)): 0.001 mg/kg; Oral administration MED (minimum effective dose showing a significant preventive activity) [1, 6]: 0.01 mg/kg; ex vivo MED (minimum effective dose showing significant inhibitory effects, P < 0.05) [4, 6]: 0.3 mg/kg
CCCCC(C)C[C@H](O)/C=C/[C@@H]1[C@@H]2[C@H](C[C@H]1O)O/C(=C\C1CC(C(=O)O)C1)[C@@H]2F (single isomer, unassigned) [Compound E-a, sodium salt of 2,4-methylene-7α-fluoro-17,20-dimethylPGI2] |  | 1.13 |  | Oral administration MED (minimum effective dose showing a significant preventive activity) [1, 5]: 0.1 mg/kg
CCCCC[C@H](O)/C=C/[C@@H]1[C@H]2C/C(=C/CCCC(=O)O)O[C@H]2C[C@H]1O [Compound F, natural PGI2, reference compound] |  |  | > 10 | 
CCCCC(C)C[C@H](O)/C=C/[C@@H]1[C@@H]2[C@H](C[C@H]1O)O/C(=C\C1CC(C(=O)OC)C1)[C@@H]2F (stereo partly drawn) [Compound D-a, methyl ester of 2,4-methylene-7α-fluoro-17,20-dimethylPGI2] |  | 2.88 (≈ 6.78 nM) | 0.3 | 
